Laboratory results as given in paper PMC11436104 (Toxins, 2024).
Read-outs that look alike come from different tables or passages of the source. *1 amine or outer side, *2 acyl side, *3 side chain or, on linkers, in order; H or OH if unused. Where a SMILES comes first, the peptide text is derived from it. Bridges are numbered along the chain shown (N, C = ends). [ ]: non-standard residue; d: D form. Adda = CO[C@@H](Cc1ccccc1)[C@@H](C)/C=C(C)/C=C/[C@H](N[*:1])[C@H](C)C(=O)[*:2]; dAsp(3S-Me) = C[C@H](C(=O)[*:3])[C@@H](N[*:1])C(=O)[*:2]; d(γGlu) = O=C(O)[C@@H](CCC(=O)[*:2])N[*:1]; hTyr = N[C@@H](CCc1ccc(O)cc1)C(=O)O; NMeA = CN[C@@H](C)C(=O)O; NMeDha = C=C(NC)C(=O)O; CO = O=C([*:1])[*:2]

Tests used:
U87-MG cells [1] = assay: Cytoskeleton immunostaining (microfilaments, microtubules), confocal microscopy; type: cell-based, human; settings: 10 µM, 24 h
Method: (§1) To determine the influence of the CCPs on actin microfilament and microtubule organization, the cells were labeled with rhodamine-conjugated phalloidin (Molecular Probes, Cat. # R415), and mouse monoclonal anti-bovine α-tubulin antibodies (Molecular Probes Cat. # A11126) and secondary Alexa-488 goat anti-mouse IgG (Molecular Probes Cat. # A-11017), respectively. The cells (3000/well) were plated into 16-well plates (Culture Well Chambered Coverglass for Cell Culture; […].
(§2) The cells in all the experiments were exposed to the CCPs for an additional 24 h in the CO2 incubator at 37 °C in a 5% CO2 atmosphere before they were fixed.
(§3) Fixing and staining. The cells were washed in phosphate-buffered saline (PBS) and fixed in 3.7% paraformaldehyde in either PBS (37 °C, 30 min; for microfilaments, microtubules, nestin) or in ice-cold methanol (4 °C, 10 min; for GFAP, desmoplakin I+II). Then the cells were permeabilized in PBS containing 0.1% Triton X-100 (v/v; Merck, Germany) for 20 min and blocked in 4% bovine serum albumin (Sigma) at room temperature for 10 min. For desmoplakin I+II visualization, the cells were blocked in 10% fetal bovine serum (Sigma) for 60 min without cell permeabilization. Microfilaments were stained with rhodamine-conjugated phalloidin (1:40) for 30 min at room temperature. Microtubules were visualized by immunostaining using an anti-α-tubulin antibody overnight at 4 °C (1:200 in PBS containing Ca^2+, 0.1% [v/v] Tween-20) and the secondary antibodies labeled with Alexa-488 goat anti-mouse IgG (1:1000; 30 min at room temperature). Intermediate filaments were stained using anti-nestin (1:500; overnight at 4 °C) and anti-GFAP (1:500, overnight at 4 °C) antibodies. The anti-nestin-labeled cells were visualized using secondary antibodies labeled with Alexa-488 goat anti-mouse IgG and the anti-GFAP-labeled cells with Alexa-488 anti-rabbit IgG (1:1000 dilution, room temperature, 30 min). Desmoplakin I+II were stained with a mouse anti-desmoplakin I+II antibody (1:500 dilution; room temperature, 60 min) and visualized with Alexa-488 goat anti-mouse IgG (1:1000 dilution; room temperature, 30 min). The cell nuclei were stained with To-Pro-3 (Molecular Probes; 1:1000 dilution; room temperature, 30 min). After each step, the samples were washed three times with PBS. Finally, all the cell preparations were immersed in an antifade reagent (Prolong Gold; Molecular Probes) to prevent photobleaching.
(§4) Microscopy. […] The cell preparations were also examined under light microscopy (Eclipse TE 3000; Nikon, Japan), and the images were recorded under phase contrast and epifluorescence (i.e., B-2A and G-2A filters, respectively).

NHAs [2] = assay: as above; type: cell-based, human; settings: 10 µM, 24 h
Method: as §1, §2, §3, §4

U87-MG cells [3] = assay: Intermediate filament immunostaining (nestin, GFAP), confocal microscopy; type: cell-based, human
Method: (§5) For the intermediate filaments, visualization at 1 µM MC-LR was used as the positive control. The cells were stained with rabbit monoclonal anti-GFAP (Merck Millipore, Bedford, MA, USA, Cat. # AB5804) and secondary Alexa-488 goat anti-rabbit IgG (Molecular Probes, Cat. # A-11034) antibodies and with mouse monoclonal anti-nestin (Merck Millipore, Cat. # MAB5326) and secondary Alexa-488 goat anti-mouse IgG (Molecular Probes, Cat. # A-11017) antibodies.
as §2, §3, §4

NHAs [4] = assay: Cell morphology, light microscopy (phase contrast); type: cell-based, human; settings: evident already at 1 µM, 24 h, 100× magnification
[5] = Insertion into lipid monolayer (Langmuir trough, surface pressure); type: physicochemical; settings: for insertion kinetics into the lipid monolayer (surface pressure increase): 20 µM, initial pressure ~11 mN/m; for critical pressure of insertion: extrapolation to zero pressure variation (ΔΠ = 0), 20 µM CCP
Method: Lateral pressure measurements were carried out in a Langmuir trough (MicroTrough-S system; Kibron, Helsinki, Finland) at room temperature (25 °C) under constant stirring. The aqueous sub-phase was 500 µL 10 mM Hepes, 200 mM NaCl, and pH 7.5.
To create lipid monolayers, dioleylposphatidylcholine and cholesterol (70:30) were dissolved together in chloroform/methanol (2:1, v/v) and gently spread over the sub-phase. The desired initial surface pressure was obtained by changing the amounts of the lipid mixture applied to the air–water interface. After solvent evaporation (10 min), each CCP was separately injected through a hole that was connected to the sub-phase, at a final concentration in the Langmuir trough of 20 µM. The changes in surface pressure versus time were recorded until a stable signal was obtained. […] The increase in the surface pressure (∆Π) was plotted versus the initial pressure (Π0), and the critical pressures were determined using linear regression with Prism 5 software (GraphPad, Inc., La Jolla, CA, USA).

NHAs [6] = assay: Intermediate filament immunostaining (nestin, GFAP), confocal microscopy; type: cell-based, human
Method: as §5, §2, §3, §4

Structure (SMILES) | microfilament (actin) organization (U87-MG cells [1]) | microtubule organization (U87-MG cells [1]) | microfilament and microtubule organization (NHAs [2]) | GFAP filament organization (U87-MG cells [3]; U87-MG, 24 h) | morphological changes under light microscopy (NHAs [4]) | insertion kinetics into the lipid monolayer (surface pressure increase) [5] | critical pressure of insertion [5] [mN/m] | GFAP filament organization (U87-MG cells [3]) | nestin organization (NHAs [6]) | GFAP immunolabeling, cell shape (NHAs [6]; NHAs, 24 h)
CC[C@H](C)[C@@H]1NC(=O)[C@H](Cc2ccc(OC)cc2)N(C)C(=O)[C@H]([C@@H](C)O)N2C(=O)[C@H](CC[C@H]2O)NC(=O)[C@H](CC(C)C)NC(=O)[C@@H](NC(=O)[C@H](CCC(N)=O)NC(=O)[C@H](CCc2ccc(O)cc2)NC(=O)[C@@H](O)CO)[C@@H](C)OC1=O | aggregation of the cortical microfilaments along the basal membrane and degradation of the membrane ruffles | the microtubules were reorganized and concentrated around the nucleus | strong cytolytic effects on the NHAs, with the collapse of the microfilaments in the center of the cell | concentration of the GFAP filaments was observed along the entire cell body | formation of twisted astrocytic outgrowths | interacted rapidly with the monolayer | 34.2 | – | – | –
CC[C@H](C)[C@@H]1NC(=O)[C@H](NC(=O)N[C@@H](CCCNC(=N)N)C(=O)O)CCCCNC(=O)[C@H](Cc2ccccc2)NC(=O)[C@H](C)N(C)C(=O)[C@H](CCc2ccc(O)cc2)NC1=O [anabaenopeptin F] ({Arg-CO}-[dK]I[hTyr][NMeA]F; lactam 1-C) | actin aggregation | – | – | – | – | – | – | – | – | –
C=C1C(=O)N[C@H](C)C(=O)N[C@@H](CC(C)C)C(=O)N[C@@H](C(=O)O)[C@H](C)C(=O)N[C@@H](CCCNC(=N)N)C(=O)N[C@@H](/C=C/C(C)=C/[C@H](C)[C@H](Cc2ccccc2)OC)[C@H](C)C(=O)N[C@@H](C(=O)O)CCC(=O)N1C [MC-LR, Microcystin-LR, reference compound] (R[Adda][d(γGlu)][NMeDha][dA]L[dAsp(3S-Me)]-OH; lactam N-7) | – | – | – | – | – | – | – | concentration of the GFAP filaments was observed along the entire cell body | most intense nestin concentration | –
CC(C)[C@@H]1NC(=O)[C@H](NC(=O)N[C@@H](CCCNC(=N)N)C(=O)O)CCCCNC(=O)[C@H](Cc2ccccc2)NC(=O)[C@H](C)N(C)C(=O)[C@H](CCc2ccc(O)cc2)NC1=O [anabaenopeptin B] ({Arg-CO}-[dK]V[hTyr][NMeA]F; lactam 1-C) | – | – | – | – | formation of twisted astrocytic outgrowths | interacted rapidly with the monolayer | 27.1 | – | – | characteristic twisted outgrowths
